Reference: patent US20150004134A1, “TREATMENT OF CANCER WITH HETEROCYCLIC INHIBITORS OF GLUTAMINASE” (Calithera Biosciences, Inc., priority 2012, published 2015)

Tests used:
[1] = test system: HCT116 cells; assay: Colon Carcinoma Xenograft Efficacy Study; type: in vivo, mice; conditions: intraperitoneal, twice daily, vs vehicle (FIG. 11)
Procedure: Female scid/bg mice, approximately 6 weeks of age, were implanted subcutaneously on the right flank with 5×10^6 HCT116 cells per mouse in a volume of 100 uL of sterile PBS. When tumors reached a volume of 50-100 mm^3, mice were randomized to groups of n=10 to receive either vehicle or test compound delivered twice daily by intraperitoneal injection. Tumors were measured three times per week using Vernier calipers and tumor volume calculated using the formula: Volume=(Length×Width^2/2), where length and width are the longest perpendicular sides of the tumor. Dosing continued twice daily until control tumors reached a size of 2000 mm^3 Statistical comparisons were made using a 2-way ANOVA with Bonferroni post-test.

[2] = test system: P493-6 (myc "on") cells; assay: Cell Proliferation Assay; type: cell-based; conditions: P493-6, 72 h, read-out: Cell prolif P493 72 h IC50, P493 cells, 72 h
Procedure, shortened: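 P493-6 cells with myc on, 10,000 per well in RPMI/10% FBS, exposed to serially diluted compound (0.5% DMSO final) for 72 h at 37 °C, 5% CO2. Antiproliferative effect read by Cell Titer Glo luminescence or Viacount FACS viability count.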

[3] = biological target: T1, recombinant form of Glutaminase 1 (GAC) (Homo sapiens, UniProt O94925); assay: Recombinant Enzyme Assay - Time Dependence (60 min preincubation); type: biochemical; conditions: read-out: GAC Delta N2 IC50 60 min preinc
T1 sequence (O94925 137-598 isoform O94925-3 limits assumed): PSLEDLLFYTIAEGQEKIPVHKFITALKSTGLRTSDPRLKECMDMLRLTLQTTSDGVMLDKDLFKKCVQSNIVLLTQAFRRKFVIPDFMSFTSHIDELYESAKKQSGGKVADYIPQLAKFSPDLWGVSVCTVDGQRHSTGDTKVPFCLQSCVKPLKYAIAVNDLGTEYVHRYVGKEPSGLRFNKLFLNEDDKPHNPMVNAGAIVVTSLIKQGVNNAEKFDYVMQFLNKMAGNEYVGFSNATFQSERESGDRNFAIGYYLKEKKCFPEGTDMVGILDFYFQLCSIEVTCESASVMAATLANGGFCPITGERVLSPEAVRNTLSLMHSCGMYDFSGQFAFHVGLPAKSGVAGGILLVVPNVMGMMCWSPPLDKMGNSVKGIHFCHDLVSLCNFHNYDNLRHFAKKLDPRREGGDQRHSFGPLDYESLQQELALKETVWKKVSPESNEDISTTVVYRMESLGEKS
Procedure, shortened: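 Enzyme and compound preincubated 60 min at 20° C; reaction started with substrate buffer (50 mM Tris-HCl pH 8.0, 150 mM K2HPO4, 1 mM DTT, 20 mM L-glutamine, 2 mM NAD^+). NADH formation followed at 340 nm in kinetic mode for 15 min at 20° C; slopes (mAU/min) compared with DMSO and control-compound wells.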

[4] = test system: Caco-2 cell monolayers; assay: Caco-2 Permeability Assay; type: in vitro ADME; conditions: for Permeability Classification: absorption potential
Excerpt: Caco-2 cells are commonly used in a confluent monolayer on a cell culture insert filter. When cultured in this format and under specific conditions, the cells become differentiated and polarized such that their phenotype, morphologically and functionally resembles the enterocytes lining the small intestine. The cell monolayer provides a physical and biochemical barrier to the passage of small molecules, and is widely used across the pharmaceutical industry as an in vitro model of the human small intestinal mucosa to predict the absorption of orally administered drugs (Hidalgo et al., Gastroenterology, 1989; Artursson, J. Pharm. Sci., 1990). The correlation between the in vitro apparent permeability (P ? app) across Caco-2 monolayers and the in vivo absorption is well established (Artursson et al., Biochem. Biophys. Res. Comm., 1991).
The present assay was used to determine the bidirectional permeability of the compounds of the invention through Caco-2 cell monolayers. Caco-2 cells were grown in confluent monolayers where the media of both the apical (A) and basolateral (B) sides were at pH 7.4. Compounds were dosed at 1 μM in the presence of 200 μM Lucifer Yellow, on the apical side (A→B) or the basolateral side (B→A) for assessment, in duplicate.
The absorption potential of compounds were classified as either Low (P-app <1×10^−6 CM/S) or High (P-app >1×10^−6 CM/S).

[5] = biological target: T1, recombinant form of Glutaminase 1 (GAC); assay: Recombinant Enzyme Assay (no preincubation); type: biochemical; conditions: read-out: GAC Delta N2 IC50 no preinc;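 note: GDH-coupled GAC activity read as absorbance at 340 nm in kinetic mode over 15 min at 20 °C, slopes compared with a DMSO-only control, lower slope means inhibition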
Procedure: Compounds were assessed for their ability to inhibit the enzymatic activity of a recombinant form of Glutaminase 1 (GAC) using a biochemical assay that couples the production of glutamate (liberated by GAC) to glutamate dehydrogenase (GDH) and measuring the change in absorbance for the reduction of NAD^+ to NADH. […] Enzymatic reaction was started with the addition of 50 μL of enzyme solution (50 mM Tris-HCl pH 8.0, 0.2 mM EDTA, 150 mM K2HPO4, 0.1 mg/ml BSA, 1 mM DTT, 10 ppm antifoam, 4 units/ml GDH, 4 mM adenosine diphosphate, and 4 nM GAC) and read in a Molecular Devices M5 plate reader at 20° C. The plate reader was configured to read absorbance (λ=340 nm) in kinetic mode for 15 minutes. Data was recorded as milli-absorbance units per minute and slopes were compared to a control compound and a DMSO-only control on the same plate. Compounds with slopes less than the DMSO control were considered inhibitors and plate variability was assessed using the control compound.

[6] = biological target: T2, recombinant form of glutaminase (GAC Delta N2) (Homo sapiens, UniProt O94925); assay: Modified Recombinant Enzyme Assay - Time Dependence; type: biochemical; conditions: 60 min preincubation
T2 sequence (O94925 137-598 isoform O94925-3 limits assumed): T1 sequence (O94925 137-598 isoform O94925-3 limits assumed)
Procedure: Compounds were assessed for their ability to inhibit the enzymatic activity of a recombinant form of glutaminase using a biochemical assay that couples the production of Glu (liberated by glutaminase) to GDH and measures the increase in fluorescence due to the reduction of NADP+ to NADPH.
3x-enzyme-containing solution was made by diluting recombinant glutaminase and GDH from Proteus species (Sigma Aldrich no. G4387) into glutaminase buffer to create a 6 nM glutaminase plus 18 units/mL GDH solution. […] When time-dependent effects of compound inhibition were tested, enzyme-containing solution was treated with inhibitor-containing solution for the indicated time prior to addition of substrate-containing solution.
IC50 Determination: The initial velocities of each progress curve were calculated using a straight line equation (Y=Yintercept+(slope)*X). Initial velocity values were plotted against compound concentration and fit to a four parameter dose response equation (% activity=Bottom+(Top−Bottom)/(1+10̂((LogIC50−X)*HillSlope))) to calculate an IC50 value.

| SMILES | IC50 [6] [nM] | further results |
| --- | --- | --- |
| O=C(CCN1CCOCC1)OCC(C(=O)Nc1nnc(CCCCc2nnc(NC(=O)C(COC(=O)CCN3CCOCC3)c3ccccc3)s2)s1)c1ccccc1 (stereo not shown) [Compound 188, {[5,5′-(butane-1,4-diyl)-bis(1,3,4-thiadiazole-5,2-diyl)]-bis(azanediyl)}-bis(3-oxo-2-phenylpropane-3,1-diyl)-bis(3-morpholinopropanoate)] | – | tumor size [1]: reduced tumor size; IC50 [2]: 460 nM |
| O=C(Cc1ccccc1)Nc1ccc(CCCCc2nnc(NC(=O)Cc3ccccc3)s2)nn1 [Compound 295] | – | IC50 [2]: 39 nM; IC50 [3]: 10 nM; Significant Efflux [4]: Yes (efflux ratios being significant when greater than or equal to 3 when the Papp (B→A) was greater than or equal to 1×10^−6 cm/s); Permeability Classification [4]: High (High (P-app >1×10^−6 CM/S)); IC50 [5]: 57 nM |
| O=C(Cc1ccccc1)Nc1ccc(CCCCc2nnc(NC(=O)C(O)c3cccc(Cl)c3)s2)nn1 (stereo not shown) [Compound 318] | – | IC50 [2]: 17 nM; IC50 [3]: 6 nM; Significant Efflux [4]: Yes (efflux ratios being significant when greater than or equal to 3 when the Papp (B→A) was greater than or equal to 1×10^−6 cm/s); Permeability Classification [4]: High (High (P-app >1×10^−6 CM/S)); IC50 [5]: 180 nM |
| O=C(Cc1ccccn1)Nc1nnc(CCCCc2ccc(NC(=O)C(O)c3ccccc3)nn2)s1 (stereo not shown) [Compound 715] | 190 | – |
| COc1ccc(OC(F)(F)F)cc1CC(=O)Nc1ccc(CCCCc2nnc(NC(=O)Cc3ccccn3)s2)nn1 [Compound 717] | 34 | – |
| O=C(Cc1cc(OC(F)(F)F)ccc1O)Nc1ccc(CCCCc2nnc(NC(=O)Cc3ccccn3)s2)nn1 [Compound 718] | 26 | – |
| O=C(Cc1ccc(F)c(OC(F)(F)F)c1)Nc1ccc(CCCCc2nnc(NC(=O)Cc3ccccn3)s2)nn1 [Compound 719] | 33 | – |
| O=C(Cc1ccc(O)c(OC(F)(F)F)c1)Nc1ccc(CCCCc2nnc(NC(=O)Cc3ccccn3)s2)nn1 [Compound 723] | 42 | – |
| CC(C)(C)OC(=O)Nc1cccc(CC(=O)Nc2nnc(CCCCc3ccc(NC(=O)Cc4cccc(OC(F)(F)F)c4)nn3)s2)n1 [Compound 724] | 140 | – |
| Nc1cccc(CC(=O)Nc2nnc(CCCCc3ccc(NC(=O)Cc4cccc(OC(F)(F)F)c4)nn3)s2)n1 [Compound 725] | 50 | – |

Second part, led by results:

| IC50 [6] [nM] | SMILES | further results |
| --- | --- | --- |
| 20 | O=C(Cc1cc(OC(F)(F)F)ccc1F)Nc1ccc(CCCCc2nnc(NC(=O)Cc3ccccn3)s2)nn1 [Compound 720] | – |
| 16 | O=C(Cc1ccc(Cl)c(OC(F)(F)F)c1)Nc1ccc(CCCCc2nnc(NC(=O)Cc3ccccn3)s2)nn1 [Compound 721] | – |
| 24 | COc1ccc(CC(=O)Nc2ccc(CCCCc3nnc(NC(=O)Cc4ccccn4)s3)nn2)cc1OC(F)(F)F [Compound 722] | – |
| 12 | Cc1cccc(CC(=O)Nc2nnc(CCCCc3ccc(NC(=O)Cc4cccc(OC(F)(F)F)c4)nn3)s2)n1 [Compound 728] | – |
| 16 | COc1cc(CC(=O)Nc2ccc(CCCCc3nnc(NC(=O)Cc4ccccn4)s3)nn2)cc(OC(F)(F)F)c1 [Compound 729] | – |
| 13 | O=C(Cc1cc(O)cc(OC(F)(F)F)c1)Nc1ccc(CCCCc2nnc(NC(=O)Cc3ccccn3)s2)nn1 [Compound 730] | – |
